Test results: patent US9549917B2, “Heterocyclic-substituted benzofuran derivatives and methods of use thereof for the treatment of viral diseases” (priority 2011, dated 2017)

Assays:
HCV replicon genotype 1a = test: HCV replicon assay, genotype 1a (cell ELISA for NS3/4A); format: cell-based; conditions: Hepatitis C virus, 96 h, read-out: 1a IC50 (nM)
Method: (§1) Measurement of inhibition by compounds was performed using the HCV replicon system. Several different replicons encoding different HCV genotypes or mutations were used. In addition, potency measurements were made using different formats of the replicon assay, including different ways of measurements and different plating formats. See Jan M. Vrolijk et al., A replicons-based bioassay for the measurement of interferons in patients with chronic hepatitis C, 110 J. V[…] 201 (2003); Steven S. Carroll et al., Inhibition of Hepatitis C Virus RNA Replication by 2′-Modified Nucleoside Analogs, 278(14) J. BIOLOGICAL CHEMISTRY 11979 (2003). However, the underlying principles are common to all of these determinations, and are outlined below.
(§2) Stable neomycin phosphotransferase encoding replicons-harboring cell lines were used, so all cell lines were maintained under G418 selection prior to the assay. Potency was determined using a cell ELISA assay with an antibody to the replicons encoded NS3/4a protease. See Caterina Trozzi et al., In Vitro Selection and Characterization of Hepatitis C Virus Serine Protease Variants Resistant to an Active-Site Peptide Inhibitor, 77(6) J. Virol. 3669 (2003). To initiate an assay, replicon cells were plated in the presence of a dilution series of test compound in the absence of G418. Typically, the assays were performed in a 96-well plate formate for manual operation, or a 384-well plate format for automated assay. Replicon cells and compound were incubated for 96 hours. At the end of the assay, cells were washed free of media and compound, and the cells were then lysed. RNA was quantified indirectly through detection of replicon-encoded NS3/4A protein levels, through an ELISA-based assay with an antibody specific for NS3/4A. IC50 determinations were calculated as a percentage of a DMSO control by fitting the data to a four-parameter fit function and the data obtained is provided in the table below.
(§3) Data for selected compounds of the present invention was obtained for genotypes 1a and 1b using this method and is provided in the table below: […]

HCV replicon genotype 1b = test: HCV replicon assay, genotype 1b (cell ELISA for NS3/4A); format: cell-based; conditions: Hepatitis C virus, 96 h, read-out: 1b IC50 (nM)
Method: as §1, §2, §3

| Structure (SMILES) | IC50 (HCV replicon genotype 1a) | IC50 (HCV replicon genotype 1b) |
| --- | --- | --- |
| CNC(=O)c1c(-c2ccc(F)cc2)oc2cc(N(C)S(C)(=O)=O)c(-c3cnc(OC)c(-c4nc5c(F)cccc5o4)c3)cc12 [Compound 1, 5-(5-(4-fluorobenzo[d]oxazol-2-yl)-6-methoxypyridin-3-yl)-2-(4-fluorophenyl)-N-methyl-6-(N-methylmethylsulfonamido)benzofuran-3-carboxamide] | 0.9 nM | 0.6 nM |
| CNC(=O)c1c(-c2ccc(F)cc2)oc2cc(N(C)S(C)(=O)=O)c(-c3cncc(-c4nc5c(F)cccc5o4)c3)cc12 [Compound 2] | 0.3 nM | 0.8 nM |
| CNC(=O)c1c(-c2ccc(F)cc2)oc2cc(N(C)S(C)(=O)=O)c(-c3ccnc(-c4nc5c(F)cccc5o4)c3)cc12 [Compound 9] | 0.6 nM | 1.3 nM |
| CNC(=O)c1c(-c2ccc(F)cc2)oc2cc(N(C)S(C)(=O)=O)c(-c3cc(-c4nc5c(F)cccc5o4)c(F)cn3)cc12 [Compound 13] | 0.7 nM | 1.4 nM |
| CNC(=O)c1c(-c2ccc(F)cc2)oc2cc(N(C)S(C)(=O)=O)c(-c3cncc(-c4nc5ccccc5s4)c3)cc12 [Compound 62] | 2 nM | 1.2 nM |
| CNC(=O)c1c(-c2ccc(F)cc2)oc2cc(N(C)S(C)(=O)=O)c(-c3cncc(-c4nc5c(s4)CCCC5)c3)cc12 [Compound 82] | 0.8 nM | 1.1 nM |
| CNC(=O)c1c(-c2ccc(F)cc2)oc2cc(N(C)S(C)(=O)=O)c(-c3cnc(OC)c(-c4nc5c(o4)CCCC5(F)F)c3)cc12 [Compound 94] | 0.8 nM | 1.9 nM |
| CNC(=O)c1c(-c2ccc(F)cc2)oc2cc(N(C)S(C)(=O)=O)c(-c3cc(-c4nc5c(o4)CCCC5(F)F)ccn3)cc12 [Compound 95] | 0.9 nM | 1.1 nM |
| CNC(=O)c1c(-c2ccc(F)cc2)oc2cc(N(C)S(C)(=O)=O)c(-c3cc(-c4cc5ccccc5[nH]4)ncn3)cc12 [Compound 108, 5-(6-(1H-indol-2-yl)pyrimidin-4-yl)-2-(4-fluorophenyl)-N-methyl-6-(N-methylmethylsulfonamido)benzofuran-3-carboxamide] | 0.7 nM | 1.2 nM |
| CNC(=O)c1c(-c2ccc(F)cc2)oc2cc(N(C)S(C)(=O)=O)c(-c3ccnc(-c4cc5ccccc5[nH]4)c3)cc12 [Compound 109] | 0.4 nM | 1 nM |
| CNC(=O)c1c(-c2ccc(F)cc2)oc2cc(N(C)S(C)(=O)=O)c(-c3cncc(-c4cc5ccccc5[nH]4)n3)cc12 [Compound 113] | 0.3 nM | 0.8 nM |
| CNC(=O)c1c(-c2ccc(F)cc2)oc2cc(N(C)S(C)(=O)=O)c(-c3cc(-c4cc5c(F)cccc5[nH]4)ncn3)cc12 [Compound 119] | 0.7 nM | 1.5 nM |
| CNC(=O)c1c(-c2ccc(F)cc2)oc2cc(N(C)S(C)(=O)=O)c(-c3cncc(-c4cc5c(F)cccc5[nH]4)n3)cc12 [Compound 121] | 0.8 nM | 1.2 nM |
| CNC(=O)c1c(-c2ccc(F)cc2)oc2cc(N(C)S(C)(=O)=O)c(-c3cncc(-c4cc5cccc(F)c5[nH]4)n3)cc12 [Compound 139] | 0.8 nM | 0.8 nM |
| CNC(=O)c1c(-c2ccc(F)cc2)oc2cc(N(C)S(C)(=O)=O)c(-c3cc(-c4cc5ccccc5[nH]4)nc(OC)n3)cc12 [Compound 150, 5-(6-(1H-indol-2-yl)-2-methoxypyrimidin-4-yl)-2-(4-fluorophenyl)-N-methyl-6-(N-methylmethylsulfonamido)benzofuran-3-carboxamide] | 3.2 nM | 5.1 nM |
| CNC(=O)c1c(-c2ccc(F)cc2)oc2cc(N(C)S(C)(=O)=O)c(-c3cc(-c4cc5ccccc5[nH]4)nc(C#N)n3)cc12 [Compound 151] | 7.7 nM | 3.7 nM |
| CNC(=O)c1c(-c2ccc(F)cc2)oc2cc(N3CCCC3=O)c(-c3cncc(-c4nc5c(s4)CCCC5(F)F)c3)cc12 [Compound 155, 5-(5-(4,4-difluoro-4,5,6,7-tetrahydrobenzo[d]thiazol-2-yl)pyridin-3-yl)-2-(4-fluorophenyl)-N-methyl-6-(2-oxopyrrolidin-1-yl)benzofuran-3-carboxamide] | 2.9 nM | 1 nM |

| Structure (SMILES) | IC50 (HCV replicon genotype 1a) | IC50 (HCV replicon genotype 1b) |
| --- | --- | --- |
| CNC(=O)c1c(-c2ccc(F)cc2)oc2cc(N(C)S(C)(=O)=O)c(-c3ccc(-c4nc5c(F)cccc5o4)s3)cc12 [Compound 157] | 0.9 nM | 1.5 nM |
| CNC(=O)c1c(-c2ccc(F)cc2)oc2cc(N(C)S(C)(=O)=O)c(-c3c[nH]c(=O)c(-c4nc5c(F)cccc5o4)c3)cc12 [Compound 159] | 0.8 nM | 1.3 nM |
| CNC(=O)c1c(-c2ccc(F)cc2)oc2cc(N(CC(F)F)S(C)(=O)=O)c(-c3cc(-c4nc5ncccc5o4)ccn3)cc12 [Compound 170] | 27 nM | 5.1 nM |
| CNC(=O)c1c(-c2ccc(F)cc2)oc2cc(N(C)S(C)(=O)=O)c(-c3cncc(-c4cc5ccncc5s4)c3)cc12 [Compound 179] | 8.2 nM | 5.1 nM |
| CNC(=O)c1c(-c2ccc(F)cc2)oc2cc(N(C)S(C)(=O)=O)c(-c3cncc(-c4ccc5cc(C(F)(F)F)cnc5n4)c3)cc12 [Compound 180] | 5.4 nM | 2.3 nM |
| CNC(=O)c1c(-c2ccc(F)cc2)oc2cc(N(C)S(C)(=O)=O)c(-c3cncc(-c4nc5c(s4)C4CCC5C4)c3)cc12 (stereo not drawn) [Compound 182] | 4.4 nM | 4.3 nM |
| CNC(=O)c1c(-c2ccc(F)cc2)oc2cc(N(C)S(C)(=O)=O)c(-c3cc(-c4cc5ccccc5[nH]4)c(OC)cn3)cc12 [Compound 202] | 8.4 nM | 7.6 nM |
| CNC(=O)c1c(-c2ccc(F)cc2)oc2cc(N(C)S(C)(=O)=O)c(-c3ccc(OC)c(-c4cc5cccc(C#N)c5[nH]4)n3)cc12 [Compound 208] | 27 nM | 7.2 nM |
| CNC(=O)c1c(-c2ccc(F)cc2)oc2cc(N(C)S(C)(=O)=O)c(-c3cc(-c4cc5ccccc5[nH]4)c(OC)nn3)cc12 [Compound 209] | 8.9 nM | 4.7 nM |
| CNC(=O)c1c(-c2ccc(F)cc2)nn2cc(N(C)S(C)(=O)=O)c(-c3nccc(-c4cc5ccccc5[nH]4)n3)cc12 [Compound 210] | 11 nM | 4.7 nM |
| CNC(=O)c1c(-c2ccc(F)cc2)oc2cc(N(C)S(C)(=O)=O)c(-c3ccc(OC)c(-c4cc5ncccc5[nH]4)n3)cc12 [Compound 211] | 8.8 nM | 2.5 nM |
| CNC(=O)c1c(-c2ccc(F)cc2)oc2cc(N(C)S(C)(=O)=O)c(-c3ncc(OC)c(-c4cc5c(C#N)cccc5[nH]4)n3)cc12 [Compound 214] | 33 nM | 9.9 nM |
| CNC(=O)c1c(-c2ccc(F)cc2)oc2cc(N(C)S(C)(=O)=O)c(-c3cc(-c4cc5c(F)cccc5[nH]4)c(OC)nn3)cc12 [Compound 218] | 4.2 nM | 9.2 nM |
| CNC(=O)c1c(-c2ccc(F)cc2)oc2cc(N(C)S(C)(=O)=O)c(-c3cc(-c4cc5c(F)cccc5[nH]4)nnc3OC)cc12 [Compound 223] | 2.8 nM | 4.5 nM |
| CNC(=O)c1c(-c2ccc(F)cc2)oc2cc(N(C)S(C)(=O)=O)c(-c3nc(-c4cc5ccccc5[nH]4)c(OC)cc3OC)cc12 [Compound 224] | 99 nM | 31 nM |
| CNC(=O)c1c(-c2ccc(F)cc2)oc2cc(N(C)S(C)(=O)=O)c(-c3cnc(OC)c(-c4cc5c(C#N)cccc5[nH]4)n3)cc12 [Compound 225] | 4.7 nM | 7 nM |
